The text below walks through data of patent US8609592B2, “2-(substituted phenyl)-6-amino-5-alkoxy, thioalkoxy and aminoalkyl-4-pyrimidinecarboxylates and their use as herbicides” (Dow AgroSciences LLC, priority 2007, dated 2013).

Series [1] has as its system Barnyardgrass (Echinochloa crus-galli). The series is described as follows: General postemergence herbicidal activity, greenhouse. It is filed as in vivo. To be noted: post-emergence, 336 h, post-emergent, visual score after 14 days (0 no injury, 100 complete kill), read-out: % Growth Reduction ECHCG; for pest or weed control at 140 g/ha: 140 g ai/ha. The procedure: (§1) Seeds or nutlets of the desired test plant species were planted in Sun Gro MetroMix® 360 planting mixture, which typically has a pH of 6.0 to 6.8 and an organic matter content of about 30 percent, in plastic pots with a surface area of 64 square centimeters. When required to ensure good germination and healthy plants, a fungicide treatment and/or other chemical or physical treatment was applied. The plants were grown for 7-21 days in a greenhouse with an approximate 15 hour photoperiod which was maintained at about 23-29° C. during the day and 22-28° C. during the night. Nutrients and water were added on a regular basis and supplemental lighting was provided with overhead metal halide 1000-Watt lamps as necessary. The plants were employed for testing when they reached the first or second true leaf stage.
(§2) A weighed amount, determined by the highest rate to be tested, of each test compound was dissolved in 4 mL of a 97:3 v/v (volume/volume) mixture of acetone and dimethyl sulfoxide (DMSO) to obtain concentrated stock solutions. […] The concentrated stock solutions obtained were diluted with 20 mL of an aqueous mixture containing acetone, water, isopropyl alcohol, DMSO, Atplus 411F crop oil concentrate, and Triton X-155 surfactant in a 48.5:39:10:1.5:1.0:0.02 v/v ratio to obtain spray solutions containing the highest application rates. Additional application rates were obtained by serial dilution of 12 mL of the high rate solution into a solution containing 2 mL of 97:3 v/v (volume/volume) mixture of acetone and dimethyl sulfoxide (DMSO) and 10 mL of an aqueous mixture containing acetone, water, isopropyl alcohol, DMSO, Atplus 411F crop oil concentrate, and Triton X-155 surfactant in a 48.5:39:10:1.5:1.0:0.02 v/v ratio to obtain ½×, ¼×, ⅛× and 1/16× rates of the high rate. Compound requirements are based upon a 12 mL application volume at a rate of 187 L/ha. Formulated compounds were applied to the plant material with an overhead Mandel track sprayer equipped with a 8002E nozzles calibrated to deliver 187 L/ha over an application area of 0.503 square meters at a spray height of […] above the average plant canopy height. Control plants were sprayed in the same manner with the solvent blank.
(§3) The treated plants and control plants were placed in a greenhouse as described above and watered by sub-irrigation to prevent wash-off of the test compounds. After 14 days, the condition of the test plants as compared with that of the untreated plants was determined visually and scored on a scale of 0 to 100 percent where 0 corresponds to no injury and 100 corresponds to complete kill.

Series [2] deals with Giant foxtail (Setaria faberi). Described as above. To be noted: post-emergence, 336 h, post-emergent, visual score after 14 days (0 no injury, 100 complete kill), read-out: % Growth Reduction SETFA; for pest or weed control at 140 g/ha: 140 g ai/ha; for pest or weed control at 280 g/ha: 280 g ai/ha. The class given is in vivo. As for the experimental part: as §1, §2, §3
The test system of series [3] is Velvetleaf (Abutilon theophrasti). Described as above. To be noted: post-emergence, 336 h, post-emergent, visual score after 14 days (0 no injury, 100 complete kill), read-out: % Growth Reduction ABUTH; for pest or weed control at 140 g/ha: 140 g ai/ha; for pest or weed control at 280 g/ha: 280 g ai/ha. It is filed as in vivo. As for the experimental part: as §1, §2, §3

For series [4], the system named is Wild buckwheat (Polygonum convolvulus). The series is described as above. The class given is in vivo. To be noted: Fallopia convolvulus, post-emergence, 336 h, post-emergent, visual score after 14 days (0 no injury, 100 complete kill), read-out: % Growth Reduction POLCO; for pest or weed control at 140 g/ha: 140 g ai/ha; for pest or weed control at 280 g/ha: 280 g ai/ha. As for the experimental part: as §1, §2, §3

On to `CCOC(=O)c1nc(-c2ccc(Cl)c(F)c2)nc(N)c1OC` [Compound 9, 6-Amino-2-(4-chloro-3-fluorophenyl)-5-methoxypyrimidine-4-carboxylic acid ethyl ester], for which the pest or weed control at 140 g/ha in series [1] was determined as 90%; in series [2] it was 30%; in series [3], 95%; in series [4] it was 100%.

Turning to `CCOC(=O)c1nc(-c2ccc3c(c2)OCO3)nc(N)c1OC` [Compound 12, 6-Amino-2-benzo[1,3]-dioxol-5-yl-5-methoxypyrimidine-4-carboxylic acid ethyl ester], the pest or weed control at 140 g/ha in series [1] turned out to be 85%; in series [2] it was 90%; in series [3], 50%; in series [4] it was 80%.

Regarding `CCOC(=O)c1nc(-c2ccc(Cl)c(C(C)F)c2F)nc(N)c1OC` (stereo not shown) [Compound 14, 6-Amino-2-[4-chloro-2-fluoro-3-(1-fluoroethyl)phenyl]-5-methoxypyrimidine-4-carboxylic acid ethyl ester], the pest or weed control at 140 g/ha in series [1], in series [2], in series [3] and in series [4] was 100% each time.

In the case of `COC(=O)c1nc(-c2ccc(Cl)c(OC)c2F)nc(N)c1SC` [Compound 19, 6-Amino-2-(4-chloro-2-fluoro-3-methoxyphenyl)-5-methylsulfanylpyrimidine-4-carboxylic acid methyl ester], the pest or weed control at 195 g/ha is 90% in series [1] (195 g ai/ha), 85% in series [2] (195 g ai/ha), 90% in series [3] (195 g ai/ha) and 100% in series [4] (195 g ai/ha).

Turning to `COC(=O)c1nc(-c2ccc(Cl)c(OC)c2F)nc(N)c1OC` [Compound 1, 6-amino-2-(4-chloro-2-fluoro-3-methoxyphenyl)-5-methoxypyrimidine-4-carboxylic acid methyl ester], the pest or weed control at 140 g/ha in series [1] was determined as 100%; in series [2], 95%; in series [3] it was 100%; in series [4], 100%.

Turning to `COc1c(N)nc(-c2ccc(Cl)cc2F)nc1C(=O)O` [Compound 31, 6-Amino-2-(4-chloro-2-fluorophenyl)-5-methoxypyrimidine-4-carboxylic acid], the pest or weed control at 140 g/ha in series [1] came to 85%; in series [2], 70%; in series [3], 100%; in series [4] it was 100%.

Take `COc1c(Cl)ccc(-c2nc(N)c(SC)c(C(=O)O)n2)c1F` [Compound 21, 6-Amino-2-(4-chloro-2-fluoro-3-methoxyphenyl)-5-methylsulfanyl-pyrimidine-4-carboxylic acid]: the pest or weed control at 140 g/ha in series [1] worked out at 100%; in series [2], 60%; in series [3], 85%; in series [4] it was 100%.

With `COc1c(N)nc(-c2ccc(Cl)c(OC)c2F)nc1C(=O)O` [Compound 22, 6-Amino-2-(4-chloro-2-fluoro-3-methoxyphenyl)-5-methoxypyrimidine-4-carboxylic acid], the pest or weed control at 140 g/ha in series [1], in series [2], in series [3] and in series [4] was 100% in each case.

As to `COc1c(N)nc(-c2ccc(C)cc2F)nc1C(=O)O` [Compound 28, 6-Amino-2-(2-fluoro-4-methylphenyl)-5-methoxypyrimidine-4-carboxylic acid], the melting point (commonly the temperature, or range, at which the solid turns liquid) is 94 to 97 °C.

On to `CCOC(=O)c1nc(-c2ccc(Cl)cc2F)nc(N)c1OC` [Compound 13, 6-Amino-2-(4-chloro-2-fluorophenyl)-5-methoxypyrimidine-4-carboxylic acid ethyl ester], for which the pest or weed control at 140 g/ha amounted to 0% in series [1], 35% in series [2], 100% in series [3] and 100% in series [4].

As for `CCOC(=O)c1nc(-c2cc(OC)c(Cl)cc2F)nc(N)c1OC` [Compound 16, 6-Amino-2-(4-chloro-2-fluoro-5-methoxyphenyl)-5-methoxypyrimidine-4-carboxylic acid ethyl ester], the pest or weed control at 140 g/ha in series [1] was 0%; in series [2] it was 10%; in series [3] it was 60%; in series [4], 100%.

`CCOC(=O)c1nc(-c2ccc(C)cc2F)nc(N)c1OC` [Compound 10, 6-Amino-2-(2-fluoro-4-methylphenyl)-5-methoxypyrimidine-4-carboxylic acid ethyl ester]: the pest or weed control at 140 g/ha in series [1] is 10%; in series [2], 0%; in series [3] it was 100%; in series [4], 90%.

`CCOC(=O)c1nc(-c2cc(C)c(Cl)cc2F)nc(N)c1OC` [Compound 3, 6-Amino-2-(4-chloro-2-fluoro-5-methylphenyl)-5-methoxypyrimidine-4-carboxylic acid ethyl ester]: the pest or weed control at 280 g/ha in series [1] (280 g ai/ha) amounted to 0%; in series [2], 0%; in series [3], 60%; in series [4] it was 85%.

As for `COc1c(N)nc(-c2ccc(C)cc2)nc1C(=O)O` [Compound 32, 6-Amino-5-methoxy-2-p-tolylpyrimidine-4-carboxylic acid], the pest or weed control at 140 g/ha in series [1] was determined as 95%; in series [2] it was 65%; in series [3], 80%; in series [4], 100%.

For `CCOC(=O)c1nc(-c2ccc(C(F)(F)F)cc2)nc(N)c1OC` [Compound 11, 6-Amino-5-methoxy-2-(4-trifluoromethylphenyl)pyrimidine-4-carboxylic acid ethyl ester], the pest or weed control at 140 g/ha worked out at 85% in series [1], 0% in series [2], 90% in series [3] and 85% in series [4].

In the case of `CCOC(=O)c1nc(-c2ccc(Cl)cc2)nc(N)c1OC` [Compound 2, 6-Amino-2-(4-chlorophenyl)-5-methoxypyrimidine-4-carboxylic acid ethyl ester], the pest or weed control at 140 g/ha in series [1] was found to be 50%; in series [2], 70%; in series [3], 98%; in series [4] it was 100%.

Consider `CCOc1c(N)nc(-c2ccc(Cl)c(OC)c2F)nc1C(=O)O` [Compound 18, 6-Amino-2-(4-chloro-2-fluoro-3-methoxyphenyl)-5-ethoxy-pyrimidine-4-carboxylic acid], for which the pest or weed control at 280 g/ha in series [2] was determined as 70%; in series [3], 70%; in series [4], 100%.
